Here are results for two substances from PMC10776578, “Epstein-Barr virus-driven B cell lymphoma mediated by a direct LMP1-TRAF6 complex” (Nature Communications, 2024).

For test [1], the target named is T1, GST-LMP1_181-386 / His-TRAF6_310-522 (Homo sapiens, UniProt Q9Y4K3).
T1 construct: recombinant GST-LMP1_181-386 and His-TRAF6_310-522; made in house; host or cells: E. coli (BL21 Codon Plus RIPL for the His-TRAF protein; DH5α or BL21 Codon Plus RIPL for the GST protein)
The test is described as follows: AlphaScreen PPI inhibition, LMP1-TRAF6. The format is binding. Here is the method:
(§1) AlphaScreen experiments were performed in 96- or 384-well plates (Perkin Elmer, OptiPlate). In both assay formats, His-TRAF and GST-LMP1, GST-CD40, or GST-RANK proteins were incubated together in 40 µL of PBS (protein concentrations were calculated to the final reaction volume of 60 µL) supplemented with 0.5% BSA (Sigma, #A7030) and 0.1% Tween-20 (AppliChem, #A4974), for 1 h at room temperature (RT). If not indicated otherwise, standard protein concentrations were 300 nM for His-TRAF proteins and 100 nM for GST-LMP1 proteins. Ni-NTA-acceptor (Perkin Elmer, #6760619 C) and GST-acceptor (Perkin Elmer, # 6765300) beads were added each to a final concentration of 1–4 µg per mL in a final reaction volume of 60 µL and incubated for 1 h at RT in the dark. AlphaScreen PPI signals were measured in a CLARIOstar reader (BMG Labtech GmbH).
(§2) All statistical analyses were performed with Prism v10.1.0 software (GraphPad Software Inc.). Two-way ANOVA was performed on experiments with two factors of variance (Figs. 1e and 3a). […] For KD determination, the data from each experiment were cleaned for the hook effect (signal depletion by oversaturation of the beads) and analyzed using the equation one site-specific binding with hill slope (Figs. 1f–i, and Supplementary Fig. 1f). The IC50 was determined using the log(inhibitor) vs. response – variable slope (four parameters) equation (Fig. 8b and d). […]
In general terms: Bead proximity is the source of the signal in Alpha formats.

For test [2], the target named is T2, GST-CD40 / His-TRAF6_310-522 (Homo sapiens, UniProt Q9Y4K3).
T2 construct: AlphaScreen PPI experiments with GST-CD40 and His-TRAF6_310-522; made in house; host or cells: E. coli (BL21 Codon Plus RIPL for the His-TRAF protein; DH5α or BL21 Codon Plus RIPL for the GST protein)
The test is described as follows: AlphaScreen PPI inhibition, CD40-TRAF6. As to conditions: Figure 8 d; best-fit values; 0,03-30 µM peptide. It is filed as binding. Here is the method: as §1, §2

Another test concerns TRAF6_346-504. The test is described as follows: NMR spectroscopy (1H,15N HSQC) of TRAF6 with LMP1 peptide. The format is binding, human. As to conditions: 90 μM 15N-TRAF6, five-fold excess peptide, PBS pH 7.4, 10% D2O, 298 K. Here is the method: For NMR, a His-SUMO-TRAF6 fusion construct was expressed in E. coli Rosetta2 DE3 cells from pET-hSu-TRAF6_346-504. The recombinant protein was uniformly labeled with ^15N by growing expression cultures in ^15N-autoinduction medium. TRAF6 protein was purified from cell lysate via IMAC using a Ni-NTA column. After elution, the protein was transferred to 100 mM Tris-HCl pH 8.0, 300 mM NaCl, 20 mM imidazole, and 5 mM β-mercaptoethanol. SUMO-hydrolase dtUD1 was added (ratio 1:50) and incubated overnight at 4 °C. After cleavage, the protein was subjected to a second Ni-NTA affinity chromatography step and then further purified via size-exclusion chromatography using a Superdex 75 10/300 GL column (Äkta system, GE Healthcare). SEC buffer was PBS ([…], 2.7 mM KCl, 10 mM Na2HPO4, 1.8 mM KH2PO4 pH 7.4, 5 mM β-ME) and was subsequently used in the following NMR experiments. NMR spectra were recorded at 298 K using a Bruker Avance 600 spectrometer with a QCI cryogenic probe and topspin v.3.2 software (Bruker BioSpin). Spectra were processed using NMRDraw v.8.7 of NMRPipe software[86] and analyzed with the CCPN Analysis software v.2.4.1[87]. NMR titrations were performed by recording ^1H,^15N HSQC experiments. For titrations of TRAF6, samples of 90 μM ^15N-labeled TRAF6 in PBS pH 7.4, 10% D2O, and 5 mM β-ME were used. […]

T2 sequence (Q9Y4K3 310-522): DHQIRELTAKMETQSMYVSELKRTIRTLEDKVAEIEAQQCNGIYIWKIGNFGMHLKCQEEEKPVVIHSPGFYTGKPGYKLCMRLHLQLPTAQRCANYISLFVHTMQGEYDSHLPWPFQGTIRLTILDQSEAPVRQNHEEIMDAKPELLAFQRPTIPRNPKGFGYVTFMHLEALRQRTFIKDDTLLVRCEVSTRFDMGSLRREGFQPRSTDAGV
T1 sequence (Q9Y4K3 310-522): as above

Consider DRQIKIWFQNRRMKWKK [control peptide], for which, in test [1], the “inhibition of LMP1-TRAF6 interaction (in words)” value was “inactive”. Also, in test [2], the “inhibition of CD40-TRAF6 interaction (in words)” value is reported as “no inhibition”.

Consider “G378PVQLSYYD [LMP1 peptide G378PVQLSYYD, LMP1 peptide used in NMR titration]”, for which, in the test with TRAF6_346-504, the “NMR signals of TRAF6 upon peptide addition (in words)” value is given as “the signals corresponding to some of the TRAF6 residues were broadened beyond detection”.
